Experimental data published in patent US7485634B2, “Azepinoindole and pyridoindole derivatives as pharmaceutical agents” (Exelixis, Inc., priority 2002, dated 2009).
Values belong to the molecule of their own block, whether it stands above or below them.

Tests used:
[1] = target: T1, full length human farnesoid X receptor (Homo sapiens, UniProt Q96RI1); experiment: farnesoid X receptor/ECREx7 co-transfection assay (luciferase reporter, CV-1 cells); assay type: cell-based; conditions: read-out: agonist activity EC50
T1 construct: CMX-farnesoid X receptor (full length human farnesoid X receptor); expressed in transfected cells; host or cells: CV-1 African Green Monkey Kidney cells
T1 sequence (Q96RI1 1-472 isoform Q96RI1-2): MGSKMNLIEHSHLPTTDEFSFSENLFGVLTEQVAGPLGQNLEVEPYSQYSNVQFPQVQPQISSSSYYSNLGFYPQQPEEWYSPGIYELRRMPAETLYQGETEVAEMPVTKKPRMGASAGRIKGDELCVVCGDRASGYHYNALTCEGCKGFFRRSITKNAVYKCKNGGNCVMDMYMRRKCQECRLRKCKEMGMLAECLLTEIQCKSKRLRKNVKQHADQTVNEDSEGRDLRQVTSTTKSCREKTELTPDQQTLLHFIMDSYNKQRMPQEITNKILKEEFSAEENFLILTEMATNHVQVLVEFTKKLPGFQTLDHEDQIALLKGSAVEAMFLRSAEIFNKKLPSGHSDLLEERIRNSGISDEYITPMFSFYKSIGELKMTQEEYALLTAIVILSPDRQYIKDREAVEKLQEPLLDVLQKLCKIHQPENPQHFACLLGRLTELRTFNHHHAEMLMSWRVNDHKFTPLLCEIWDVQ
T1 sequence (P19793 1-462 partner): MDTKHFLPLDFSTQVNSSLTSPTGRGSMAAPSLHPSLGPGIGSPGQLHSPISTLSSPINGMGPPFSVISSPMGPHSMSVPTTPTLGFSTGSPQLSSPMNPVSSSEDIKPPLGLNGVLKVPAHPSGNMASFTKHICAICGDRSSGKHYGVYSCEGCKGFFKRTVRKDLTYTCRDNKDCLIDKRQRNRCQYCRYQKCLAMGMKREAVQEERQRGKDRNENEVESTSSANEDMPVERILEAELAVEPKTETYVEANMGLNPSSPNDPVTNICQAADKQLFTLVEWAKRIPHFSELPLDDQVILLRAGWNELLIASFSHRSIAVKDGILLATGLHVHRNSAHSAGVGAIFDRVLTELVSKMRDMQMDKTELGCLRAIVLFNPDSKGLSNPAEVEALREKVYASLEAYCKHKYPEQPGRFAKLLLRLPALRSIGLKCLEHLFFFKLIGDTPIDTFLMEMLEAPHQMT
Description: The basic co-transfection protocol for measuring the farnesoid X receptor activity is as follows. CV-1 African Green Monkey Kidney cells were plated 24 hours before transfection to achieve approximately 70-80 percent confluency. Cells were transfected with the following expression vectors, CMX-farnesoid X receptor (full length human farnesoid X receptor), CMX-RXRα (full length human RXR), Luc12 (ECREx7-Tk-Luciferase) luciferase reporter gene construct. (See WO 00/76523, Venkateswaran et al., (2000) J. Biol. Chem. 275 14700-14707). A CMX-β-Galactosidase expression vector was used as a transfection control. The transfection reagent used was DOTAP (Boehringer Mannheim). Cells were incubated with the DOTAP/DNA mixture for 5 hours after which the cells were harvested and plated onto either 96 well or 384 well plates containing the appropriate concentration of test compound. The assay was allowed to continue for an additional 18-20 hours, after which the cells were lysed, with lysis buffer (1% triton X 100, 10% glycerol, 5 mM Dithiothreitol, 1 mM EGTA, 25 mM Tricine, pH 7.8) and the luciferase activity measured in the presence of Luciferase assay buffer (0.73 mM ATP, 22.3 mM Tricine, 0.11 mM EGTA, 0.55 mM Luciferin, 0.15 mM Coenzyme A, 0.5 mM HEPES, 10 mM Magnesium sulphate) on a standard luminomter plate reader (PE Biosystems, NorthStar Reader), using recommended operating instructions and conditions.
Both the farnesoid X receptor/ECREx7 co-transfection assay (Example 76) and the TR-FRET assay (Example 75) can be used to establish the EC50/IC50 values for potency and percent activity or inhibition for efficacy. Efficacy defines the activity of a compound relative to a high control (chenodeoxycholic acid, CDCA) or a low control (DMSO/vehicle). The dose response curves are generated from an 8 point curve with concentrations differing by ½ LOG units. Each point represents the average of 4 wells of data from a 384 well plate. The curve for the data is generated by using the equation: Y=Bottom+(Top−Bottom)/(1+10^((LogEC50−X)*HillSlope))
The EC50/IC50 is therefore defined as the concentration at which an agonist or antagonist elicits a response that is half way between the Top (maximum) and Bottom (baseline) values. The EC50/IC50 values represented are the averages of at least 3 independent experiments. The determination of the relative efficacy or % control for an agonist is by comparison to the maximum response achieved by chenodeoxycholic acid that is measured individually in each dose response experiment.
For the antagonist assay, CDCA is added to each well of a 384 well plate to elicit a response. The % inhibition for each antagonist is therefore a measurement of the inhibition of the activity of CDCA.

[2] = test system: low density lipoprotein receptor deficient mice (LDLR^−/−); experiment: In vivo model of hyperlipidemia and atherosclerosis: LDLR−/− mice consuming a western diet; design: species or system mouse
db/db mouse = experiment: In vivo model of diabetes and dyslipidemia: db/db mouse; conditions: once daily 10 mg/kg for one week
normal mice = experiment: In vivo plasma lipid profile, normal mice, one week of daily oral dosing; design: species or system mouse
Description: To compare the effects of compounds on plasma lipid profiles, including but not limited to cholesterol and triglycerides, animals were dosed with compound for one week and plasma lipid levels monitored throughout the study. Male C57BL/6 mice (n=8) were dosed daily by oral gavage with vehicle or compound. Plasma samples were taken on day −1 (in order to group animals), day 1, 3, and 7. Samples were collected three hours after the daily dose. On day 7 of the study, following plasma collection, animals were euthanized and tissues, such as liver and intestinal mucosa were collected and snap frozen for further analysis. Plasma was analyzed for lipid parameters, such as total cholesterol, HDL cholesterol and triglyceride levels. RNA was extracted from frozen tissues for later analysis by quantitative real time PCR for regulation of key target genes. To identify specificity of target gene regulation by the farnesoid X receptor, knockout mice and C57BL/6 wild-type controls maybe used in this same protocol.

farnesoid X receptor = target: T2, farnesoid X receptor (Homo sapiens, UniProt Q96RI1); experiment: one or more of the in vitro assays described herein (TR-FRET assay, Example 75; co-transfection assay, Example 76); conditions: relative to maximum response of chenodeoxycholic acid (CDCA); read-out: efficacy;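 also: TR-FRET assay or luciferase reporter in CV-1 monkey kidney cells co-transfected with human FXR and RXRα, dose-response over 8 half-log concentrations, CDCA added in antagonist mode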
T2 construct: fused on or other part: GST fused in frame to the N-terminus of the LBD (TR-FRET assay only); Nothing is fused on in the co-transfection assay
T2 sequence (Q96RI1 244-471 isoform Q96RI1-2 limits assumed): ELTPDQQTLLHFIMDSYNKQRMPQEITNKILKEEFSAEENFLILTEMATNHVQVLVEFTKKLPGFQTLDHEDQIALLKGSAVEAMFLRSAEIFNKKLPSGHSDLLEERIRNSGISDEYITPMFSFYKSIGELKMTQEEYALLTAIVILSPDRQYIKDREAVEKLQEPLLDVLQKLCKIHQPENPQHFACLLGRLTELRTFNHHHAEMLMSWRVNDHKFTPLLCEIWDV

[3] = one week of daily dosing at 10 mg/kg
[4] = 10 mg/kg daily dosing for one week

- EC50 [1]: < 1 µM
Compound: O=C(NC1CCC1)C1=CN(C(=O)c2ccc(F)cc2)CCc2c1[nH]c1ccccc21 [3-(4-fluorobenzoyl)-1,2,3,6-tetrahydroazepino[4,5-b]indole-5-carboxylic acid cyclobutylamide]

- Emax (farnesoid X receptor): > 100%
Compound: CCOC(=O)C1=CN(C(=O)c2ccc(F)c(F)c2)CC(C)(C)c2c1[nH]c1ccccc21 [ethyl 3-(3,4-difluorobenzoyl)-1,1-dimethyl-1,2,3,6-tetrahydroazepino[4,5-b]indole-5-carboxylate]
- decrease of plasma total cholesterol levels [2, 3]: ~50%
- non-HDL cholesterol [2, 3]: decrease
- reduction of plasma triglycerides [2, 3]: greater than 50%
- plasma free fatty acid concentration ([2]; treatment with compound): attenuated
- plasma glucose concentration ([2]; treatment with compound): attenuated
- plasma free fatty acid levels (db/db mouse): declines
- reduction in non-HDL cholesterol (db/db mouse): approximately 50%
- reduction in plasma triglycerides (db/db mouse): approximately 50%
- plasma HDL-cholesterol levels (normal mice; [4]): without affecting
- plasma non-HDL cholesterol (normal mice; [4]): significant lowering
- plasma total cholesterol (normal mice; [4]): decreased
- plasma triglyceride levels (normal mice; once daily dosing at 0.1-10 mg/kg for one week): significantly reduced

- EC50 [1]: < 1 µM
Compound: CCCOC(=O)C1=CN(C(=O)c2ccc(F)cc2)C(C)Cc2c1[nH]c1ccccc21 (stereo not shown) [n-propyl 3(4-fluorobenzoyl)-2-methyl-1,2,3,6-tetrahydroazepino[4,5-b]indole-5-carboxylate]

- EC50 [1]: < 1 µM
Compound: CCCOC(=O)C1=CN(C(=O)c2ccc(F)cc2)C(C)Cc2c1[nH]c1cc(F)ccc21 (stereo not shown) [n-propyl 3(4-fluorobenzoyl)-2-methyl-8-fluoro-1,2,3,6-tetrahydroazepino[4,5-b]indole-5-carboxylate]
